From patent US20100168102A9, “Amide Derivatives as Kinase Inhibitors” (Devgen NV, priority 2005, published 2010)

Assays:
PKC epsilon = target: T1, PKC epsilon (Homo sapiens, UniProt Q02156); test: Biochemical assay for PKC epsilon (fluorescence polarization, Protein Kinase C Assay Kit, Red); settings: read-out: IC50 μM PKCε
T1 construct: purchased Invitrogen P2282
T1 sequence (Q02156 1-737): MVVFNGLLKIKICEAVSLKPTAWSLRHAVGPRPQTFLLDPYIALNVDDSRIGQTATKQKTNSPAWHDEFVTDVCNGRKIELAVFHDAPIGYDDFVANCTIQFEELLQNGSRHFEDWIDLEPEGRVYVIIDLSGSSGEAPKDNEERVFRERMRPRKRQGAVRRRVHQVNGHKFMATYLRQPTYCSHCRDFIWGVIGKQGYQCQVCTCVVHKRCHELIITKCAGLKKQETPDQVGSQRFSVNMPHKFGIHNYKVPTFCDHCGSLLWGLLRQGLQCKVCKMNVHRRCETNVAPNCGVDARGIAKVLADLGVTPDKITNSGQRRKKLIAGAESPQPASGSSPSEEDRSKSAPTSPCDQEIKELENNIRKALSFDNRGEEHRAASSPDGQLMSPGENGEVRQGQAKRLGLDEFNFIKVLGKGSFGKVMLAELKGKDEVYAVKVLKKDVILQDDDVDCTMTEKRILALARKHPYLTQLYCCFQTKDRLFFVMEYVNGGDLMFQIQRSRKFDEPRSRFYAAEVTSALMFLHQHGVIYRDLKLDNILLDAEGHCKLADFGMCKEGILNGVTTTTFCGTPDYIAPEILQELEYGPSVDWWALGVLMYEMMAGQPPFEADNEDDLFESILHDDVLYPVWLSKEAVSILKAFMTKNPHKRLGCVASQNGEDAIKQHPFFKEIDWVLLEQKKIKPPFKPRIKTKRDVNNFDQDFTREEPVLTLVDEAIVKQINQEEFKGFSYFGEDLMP
In short: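 PKC epsilon at 10 ng/ml final was preincubated 30 min at room temperature with compound in HEPES pH 7.4 with DTT and Triton X-100. ATP/protein substrate was then added in buffer with MgCl2 and CaCl2 for 80 min. The reaction was stopped with EDTA, phosphorylation was detected by fluorescence polarization with rhodamine tracer and anti-phosphoserine antibody, and IC50 values came from curve fits.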

human ROCKα/ROCKII mix = target: T2, human ROCKα/ROCKII mix (Homo sapiens, UniProt O75116); test: Biochemical assay for ROCK (fluorescence polarization, ROCK IMAP Kit)
T2 construct: purchased Upstate Biotechnology 14-451
T2 sequence (O75116 11-552 limits assumed): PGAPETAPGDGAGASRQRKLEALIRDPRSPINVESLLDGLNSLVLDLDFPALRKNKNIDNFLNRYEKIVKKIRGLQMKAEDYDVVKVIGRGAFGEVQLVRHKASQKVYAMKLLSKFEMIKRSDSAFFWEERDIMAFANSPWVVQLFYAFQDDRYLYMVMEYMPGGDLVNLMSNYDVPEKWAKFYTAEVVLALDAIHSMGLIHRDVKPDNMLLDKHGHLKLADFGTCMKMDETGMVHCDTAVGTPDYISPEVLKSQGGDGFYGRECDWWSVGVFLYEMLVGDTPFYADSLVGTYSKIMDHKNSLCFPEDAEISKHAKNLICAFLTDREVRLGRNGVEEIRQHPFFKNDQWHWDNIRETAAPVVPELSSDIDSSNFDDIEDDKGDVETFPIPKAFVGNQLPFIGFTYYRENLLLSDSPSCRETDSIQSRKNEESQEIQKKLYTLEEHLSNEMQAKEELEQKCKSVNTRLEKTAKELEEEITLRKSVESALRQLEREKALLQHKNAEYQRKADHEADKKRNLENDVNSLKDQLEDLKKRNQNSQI

Structure (SMILES)	IC50 (PKC epsilon) [µM]	IC50 (human ROCKα/ROCKII mix) [µM]
CN(CC(N)c1ccc(C(=O)Nc2ccncc2)cc1)C(=O)C(C)(C)c1ccc(F)c(F)c1 (centres unmarked) [Compound 485, 4-(1-Amino-2-{[2-(3,4-difluoro-phenyl)-2-methyl-propionyl]-methyl-amino}-ethyl)-N-pyridin-4-yl-benzamide]	0.5 to 5	0.5 to 5
CN(CC(N)c1ccc(C(=O)Nc2ccncc2)cc1)C(=O)C1(c2ccc(F)c(F)c2)CC1 (centres unmarked) [Compound 486, 4-(1-Amino-2-{[1-(3,4-difluoro-phenyl)-cyclopropanecarbonyl]-methyl-amino}-ethyl)-N-pyridin-4-yl-benzamide]	0.5 to 5	0.5 to 5
CN(CC(N)c1ccc(C(=O)Nc2ccncc2)cc1)C(=O)C1(c2ccc(F)c(F)c2)CCC1 (centres unmarked) [Compound 487, 4-(1-Amino-2-{[1-(3,4-difluoro-phenyl)-cyclobutanecarbonyl]-methyl-amino}-ethyl)-N-pyridin-4-yl-benzamide]	0.5 to 5	0.5 to 5
CN(CC(N)c1ccc(C(=O)Nc2ccncc2)cc1)C(=O)C1(c2ccc(F)c(F)c2)CCCC1 (centres unmarked) [Compound 488, 4-(1-Amino-2-{[1-(3,4-difluoro-phenyl)-cyclopentanecarbonyl]-methyl-amino}-ethyl)-N-pyridin-4-yl-benzamide]	0.5 to 5	0.5 to 5
CN(CC(N)c1ccc(C(=O)Nc2ccncc2)cc1)C(=O)Cc1ccc(Cl)cc1Cl (centres unmarked) [Compound 490, 4-(1-Amino-2-{[2-(2,4-dichloro-phenyl)-acetyl]-methyl-amino}-ethyl)-N-pyridin-4-yl-benzamide]	5 to 50	0.5 to 5
CN(CC(N)c1ccc(C(=O)Nc2ccncc2)cc1)C(=O)Cc1ccc(Cl)c(Cl)c1 (centres unmarked) [Compound 491, 4-(1-Amino-2-{[2-(3,4-dichloro-phenyl)-acetyl]-methyl-amino}-ethyl)-N-pyridin-4-yl-benzamide]	5 to 50	0.5 to 5
CN(CC(N)c1ccc(C(=O)Nc2ccncc2)cc1)C(=O)C1(c2ccc(Cl)c(Cl)c2)CC1 (centres unmarked) [Compound 493, 4-(1-Amino-2-{[1-(3,4-dichloro-phenyl)-cyclopropanecarbonyl]-methyl-amino}-ethyl)-N-pyridin-4-yl-benzamide]	5 to 50	0.5 to 5
CN(CC(N)c1ccc(C(=O)Nc2ccncc2)cc1)C(=O)C1(c2ccc(Cl)c(Cl)c2)CCC1 (centres unmarked) [Compound 494, 4-(1-Amino-2-{[1-(3,4-dichloro-phenyl)-cyclobutanecarbonyl]-methyl-amino}-ethyl)-N-pyridin-4-yl-benzamide]	5 to 50	0.5 to 5
CN(CC(N)c1ccc(C(=O)Nc2ccncc2)cc1)C(=O)C1(c2ccc(Cl)cc2Cl)CC1 (centres unmarked) [Compound 495, 4-(1-Amino-2-{[1-(2,4-dichloro-phenyl)-cyclopropanecarbonyl]-methyl-amino}-ethyl)-N-pyridin-4-yl-benzamide]	5 to 50	0.5 to 5
CN(CC(N)c1ccc(C(=O)Nc2ccncc2)cc1)C(=O)Cc1c(F)cccc1Cl (centres unmarked) [Compound 496, 4-(1-Amino-2-{[2-(2-chloro-6-fluoro-phenyl)-acetyl]-methyl-amino}-ethyl)-N-pyridin-4-yl-benzamide]	5 to 50	0.5 to 5
CN(CC(N)c1ccc(C(=O)Nc2ccncc2)cc1)C(=O)Cc1ccc(F)cc1Cl (centres unmarked) [Compound 498, 4-(1-Amino-2-{[2-(2-chloro-4-fluoro-phenyl)-acetyl]-methyl-amino}-ethyl)-N-pyridin-4-yl-benzamide]	5 to 50	0.5 to 5
CN(CC(N)c1ccc(C(=O)Nc2ccncc2)cc1)C(=O)Cc1cccc(Cl)c1F (centres unmarked) [Compound 501, 4-(1-Amino-2-{[2-(3-chloro-2-fluoro-phenyl)-acetyl]-methyl-amino}-ethyl)-N-pyridin-4-yl-benzamide]	5 to 50	0.5 to 5
CN(CC(N)c1ccc(C(=O)Nc2ccncc2)cc1)C(=O)Cc1ccc(Cl)cc1F (centres unmarked) [Compound 502, 4-(1-Amino-2-{[2-(4-chloro-2-fluoro-phenyl)-acetyl]-methyl-amino}-ethyl)-N-pyridin-4-yl-benzamide]	5 to 50	0.5 to 5
CN(CC(N)c1ccc(C(=O)Nc2ccncc2)cc1)C(=O)C1(c2ccc(Cl)cc2F)CC1 (centres unmarked) [Compound 504, 4-(1-Amino-2-{[1-(4-chloro-2-fluoro-phenyl)-cyclopropanecarbonyl]-methyl-amino}-ethyl)-N-pyridin-4-yl-benzamide]	0.5 to 5	0.5 to 5
CN(CC(N)c1ccc(C(=O)Nc2ccncc2)cc1)C(=O)C(C)(C)c1ccc(F)c(Cl)c1 (centres unmarked) [Compound 505, 4-(1-Amino-2-{[2-(3-chloro-4-fluoro-phenyl)-2-methyl-propionyl]-methyl-amino}-ethyl)-N-pyridin-4-yl-benzamide]	5 to 50	0.5 to 5
CN(CC(N)c1ccc(C(=O)Nc2ccncc2)cc1)C(=O)C1(c2ccc(F)c(Cl)c2)CC1 (centres unmarked) [Compound 506, 4-(1-Amino-2-{[1-(3-chloro-4-fluoro-phenyl)-cyclopropanecarbonyl]-methyl-amino}-ethyl)-N-pyridin-4-yl-benzamide]	5 to 50	0.5 to 5
CN(CC(N)c1ccc(C(=O)Nc2ccncc2)cc1)C(=O)C1CCCc2ccccc21 (centres unmarked) [Compound 512, 1,2,3,4-Tetrahydro-naphthalene-1-carboxylic acid {2-amino-2-[4-(pyridin-4-ylcarbamoyl)-phenyl]-ethyl}-methyl-amide]	5 to 50	0.5 to 5
CN(CC(N)c1ccc(C(=O)Nc2ccncc2)cc1)C(=O)C1CCOc2ccc(Cl)cc21 (centres unmarked) [Compound 515, 6-Chloro-chroman-4-carboxylic acid {2-amino-2-[4-(pyridin-4-ylcarbamoyl)-phenyl]-ethyl}-methyl-amide]	5 to 50	0.5 to 5
CN(CC(N)c1ccc(C(=O)Nc2ccncc2)cc1)C(=O)C1CCOc2ccc(F)cc21 (centres unmarked) [Compound 516, 6-Fluoro-chroman-4-carboxylic acid {2-amino-2-[4-(pyridin-4-ylcarbamoyl)-phenyl]-ethyl}-methyl-amide]	5 to 50	0.5 to 5
CN(CC(N)c1ccc(C(=O)Nc2ccncc2)cc1)C(=O)C1CCSc2ccccc21 (centres unmarked) [Compound 517, Thiochroman-4-carboxylic acid {2-amino-2-{4-(pyridin-4-ylcarbamoyl)-phenyl]-ethyl}-methyl-amide]	5 to 50	5 to 50
CN(CC(N)c1ccc(C(=O)Nc2ccncc2)cc1)C(=O)C1CCSc2ccc(F)cc21 (centres unmarked) [Compound 518, 6-Fluoro-thiochroman-4-carboxylic acid {2-amino-2-[4-(pyridin-4-ylcarbamoyl)-phenyl]-ethyl}-methyl-amide]	5 to 50	5 to 50
CN(CC(N)c1ccc(C(=O)Nc2ccncc2)cc1)C(=O)C1CCCc2sccc21 (centres unmarked) [Compound 520, 4,5,6,7-Tetrahydro-benzo[b]thiophene-4-carboxylic acid {2-amino-2-[4-(pyridin-4-ylcarbamoyl)-phenyl]-ethyl}-methyl-amide]	5 to 50	0.5 to 5
NC(c1ccc(C(=O)Nc2ccncc2)cc1)C1CCCN1C(=O)Cc1ccccc1 (centres unmarked) [Compound 521, 4-[Amino-(1-phenylacetyl-pyrrolidin-2-yl)-methyl]-N-pyridin-4-yl-benzamide]	0.5 to 5	0.05 to 0.5
Cc1cccc(CC(=O)N2CCCC2C(N)c2ccc(C(=O)Nc3ccncc3)cc2)c1 (centres unmarked) [Compound 524, 4-{Amino-[1-(2-m-tolyl-acetyl)-pyrrolidin-2-yl]-methyl}-N-pyridin-4-yl-benzamide]	5 to 50	0.5 to 5
Cc1ccc(CC(=O)N2CCCC2C(N)c2ccc(C(=O)Nc3ccncc3)cc2)cc1 (centres unmarked) [Compound 525, 4-{Amino-[1-(2-p-tolyl-acetyl)-pyrrolidin-2-yl]-methyl}-N-pyridin-4-yl-benzamide]	0.5 to 5	0.5 to 5
COc1ccccc1CC(=O)N1CCCC1C(N)c1ccc(C(=O)Nc2ccncc2)cc1 (centres unmarked) [Compound 526, 4-(Amino-{1-[2-(2-methoxy-phenyl)-acetyl]-pyrrolidin-2-yl]-methyl}-N-pyridin-4-yl-benzamide]	5 to 50	0.5 to 5
COc1cccc(CC(=O)N2CCCC2C(N)c2ccc(C(=O)Nc3ccncc3)cc2)c1 (centres unmarked) [Compound 527, 4-(Amino-{1-[2-(3-methoxy-phenyl)-acetyl]-pyrrolidin-2-yl}-methyl)-N-pyridin-4-yl-benzamide]	0.5 to 5	0.5 to 5
COc1ccc(CC(=O)N2CCCC2C(N)c2ccc(C(=O)Nc3ccncc3)cc2)cc1 (centres unmarked) [Compound 528, 4-(Amino-{1-[2-(4-methoxy-phenyl)-acetyl]-pyrrolidin-2-yl}-methyl)-N-pyridin-4-yl-benzamide]	0.5 to 5	0.05 to 0.5
